For one experiment, the system named is HeLa cell line. Kind of experiment: Proliferation assay (crystal violet). As to conditions: Homo sapiens, 96 h, read-out: Biological Assay 2: Proliferation assay (HeLa cell line) median IC50.
For experiment [1], the target named is catalytic domain of human Bub1 (amino acids 704-1085) (Homo sapiens (Human), UniProt O43683). Kind of experiment: Bub1 kinase assay (TR-FRET). It is filed as biochemical. The note with it: read-out: Biological Assay 1: Bub1 kinase assay median IC50. The procedure:
The stopped reaction mixture was further incubated 1 h at 22° C. in order to allow the formation of complexes between peptides and detection reagents. Subsequently, the amount of product was evaluated by measurement of the resonance energy transfer from the Eu-chelate-antibody complex recognizing the Phosphoserine residue to the streptavidin-XL665 bound to the biotin moiety of the peptide. […] IC50 values were calculated by fitting the normalized inhibition data to a 4-parameter logistic equation (Minimum, Maximum, IC50, Hill; Y=Max+(Min−Max)/(1+(X/IC50)Hill)).
Background: In TR-FRET formats the signal depends on donor and acceptor labels being close together.

[2] abbreviates: TR-FRET, 10 μM ATP, 1 μM peptide substrate.

Like-named read-outs stand apart in the source and are kept apart here. Where only a bound is given, the exact number is not on record here.

Experimental for HeLa cell line: Cultivated tumor cells (cells were ordered from ATCC, except HeLa-MaTu and HeLa-MaTu-ADR, which were ordered from EPO-GmbH, Berlin) were plated at a density of 1000 to 5000 cells/well, depending on the growth rate of the respective cell line, in a 96-well multititer plate in 200 μL of their respective growth medium supplemented 10% fetal calf serum. After 24 hours, the cells of one plate (zero-point plate) were stained with crystal violet (see below), while the medium of the other plates was replaced by fresh culture medium (200 μL), to which the test substances were added in various concentrations (0 μM, as well as in the range of 0.001-10 μM; the final concentration of the solvent dimethyl sulfoxide was 0.5%). The cells were incubated for 4 days in the presence of test substances. Cell proliferation was determined by staining the cells with crystal violet: the cells were fixed by adding 20 μL/measuring point of an 11% glutaric aldehyde solution for 15 minutes at room temperature. After three washing cycles of the fixed cells with water, the plates were dried at room temperature. The cells were stained by adding 100 μL/measuring point of a 0.1% crystal violet solution (pH 3.0). After three washing cycles of the stained cells with water, the plates were dried at room temperature. The dye was dissolved by adding 100 μl/measuring point of a 10% acetic acid solution. Absorbtion was determined by photometry at a wavelength of 595 nm. The change of cell number, in percent, was calculated by normalization of the measured values to the absorbtion values of the zero-point plate (=0%) and the absorbtion of the untreated (0 μm) cells (=100%). The IC50 values were determined by means of a 4 parameter fit.

Take `CCOc1cc(F)c(Cn2nc(-c3ncc(OC)c(Nc4ccncc4)n3)c(C)c2Br)c(F)c1` [Example 2-2-11, 2-[5-bromo-1-(4-ethoxy-2,6-difluorobenzyl)-4-methyl-1H-pyrazol-3-yl]-5-methoxy-N-(pyridin-4-yl)pyrimidin-4-amine]: the IC50 is 1.3 µM in the experiment on HeLa cell line and 0.013 µM in experiment [1] (setting [2]).

Consider `CCOc1cc(F)c(Cn2nc(-c3ncc(OC)c(Nc4ccncc4)n3)c(F)c2C)c(F)c1` [Example 2-2-6, 2-[1-(4-ethoxy-2,6-difluorobenzyl)-4-fluoro-5-methyl-1H-pyrazol-3-yl]-5-methoxy-N-(pyridin-4-yl)pyrimidin-4-amine], for which the IC50 in the experiment on HeLa cell line was 4.5 µM; in experiment [1] (setting [2]), 0.041 µM.

On to `CCOc1cc(F)c(Cn2cc(Cl)c(-c3ncc(OC)c(Nc4ccncc4C(=O)NC)n3)n2)c(F)c1` [Example 2-4-2, 4-({2-[4-chloro-1-(4-ethoxy-2,6-difluorobenzyl)-1H-pyrazol-3-yl]-5-methoxypyrimidin-4-yl}amino)-N-methylnicotinamide], for which the IC50 with HeLa cell line was above 10 µM; in experiment [1] (setting [2]), 0.013 µM.

For `CCOC(=O)c1cnccc1Nc1nc(-c2nn(Cc3c(F)cc(OCC)cc3F)c(C)c2F)ncc1OC` [Example 2-2-9, ethyl 4-({2-[1-(4-ethoxy-2,6-difluorobenzyl)-4-fluoro-5-methyl-1H-pyrazol-3-yl]-5-methoxypyrimidin-4-yl}amino)nicotinate], the IC50 in experiment [1] (setting [2]) came to 0.04 µM.

As to `CCOc1cc(F)c(Cn2nc(-c3ncc(OC)c(Nc4ccncc4)n3)c(C#N)c2C)c(F)c1` [Example 2-2-8, 1-(4-ethoxy-2,6-difluorobenzyl)-3-[5-methoxy-4-(pyridin-4-ylamino)pyrimidin-2-yl]-5-methyl-1H-pyrazole-4-carbonitrile], the IC50 in experiment [1] (setting [2]) was determined as 3.2 µM.

With `CCOc1cc(F)c(Cn2nc(-c3ncc(OC)c(Nc4ccncc4C(=O)NC)n3)c(F)c2C)c(F)c1` [Example 2-4-4, 4-({2-[1-(4-ethoxy-2,6-difluorobenzyl)-4-fluoro-5-methyl-1H-pyrazol-3-yl]-5-methoxypyrimidin-4-yl}amino)-N-methylnicotinamide], the results for the IC50 (with HeLa cell line; in experiment [1] (setting [2])) were above 10 µM and 0.01 µM, respectively.

`CCOc1cc(F)c(Cn2cc(Cl)c(-c3ncc(OC)c(Nc4ccncc4)n3)n2)c(F)c1` [Example 2-2-5, 2-[4-chloro-1-(4-ethoxy-2,6-difluorobenzyl)-1H-pyrazol-3-yl]-5-methoxy-N-(pyridin-4-yl)pyrimidin-4-amine]: the values for the IC50 (in the experiment on HeLa cell line; in experiment [1] (setting [2])) were 6.8 µM and 0.033 µM, respectively.

For `CCOc1cc(F)c(Cn2cc(Cl)c(-c3ncc(OC)c(Nc4ccncc4C(N)=O)n3)n2)c(F)c1` [Example 2-4-3, 4-({2-[4-chloro-1-(4-ethoxy-2,6-difluorobenzyl)-1H-pyrazol-3-yl]-5-methoxypyrimidin-4-yl}amino)nicotinamide], the IC50 is above 10 µM with HeLa cell line and 0.0074 µM in experiment [1] (setting [2]).

Turning to `CCOC(=O)c1cnccc1Nc1ccnc(-c2nn(Cc3c(F)cc(OCC)cc3F)c(C3CC3)c2Cl)n1` [Example 2-2-2, ethyl 4-({2-[4-chloro-5-cyclopropyl-1-(4-ethoxy-2,6-difluorobenzyl)-1H-pyrazol-3-yl]pyrimidin-4-yl}amino)nicotinate], the IC50 with HeLa cell line stood at 9.2 µM; in experiment [1] (setting [2]), 0.037 µM.

As for `CCOc1cc(F)c(Cn2nc(-c3nccc(Nc4ccncc4C(N)=O)n3)c(Cl)c2C2CC2)c(F)c1` [Example 2-1-2, 4-({2-[4-chloro-5-cyclopropyl-1-(4-ethoxy-2,6-difluorobenzyl)-1H-pyrazol-3-yl]pyrimidin-4-yl}amino)nicotinamide], the IC50 in the experiment on HeLa cell line stood at 8.6 µM; in experiment [1] (setting [2]), 0.0081 µM.

As to `CCOc1cc(F)c(Cn2nc(-c3ncc(OC)c(Nc4ccncc4)n3)c(Cl)c2C)c(F)c1` [Example 2-2-3, 2-[4-chloro-1-(4-ethoxy-2,6-difluorobenzyl)-5-methyl-1H-pyrazol-3-yl]-5-methoxy-N-(pyridin-4-yl)pyrimidin-4-amine], the values for the IC50 (in the experiment on HeLa cell line; in experiment [1] (setting [2])) were 3.8 µM and 0.01 µM, respectively.

`CCOc1cc(F)c(Cn2nc(-c3ncc(OC)c(Nc4ccncc4)n3)c(C)c2C#N)c(F)c1` [Example 2-2-12, 1-(4-ethoxy-2,6-difluorobenzyl)-3-[5-methoxy-4-(pyridin-4-ylamino)pyrimidin-2-yl]-4-methyl-1H-pyrazole-5-carbonitrile]: the IC50 in the experiment with HeLa cell line was above 10 µM; in experiment [1] (setting [2]), 0.1 µM.

Consider `CCOc1cc(F)c(Cn2nc(-c3nccc(Nc4ccncc4)n3)c(Cl)c2C2CC2)c(F)c1` [Example 2-2-1, 2-[4-chloro-5-cyclopropyl-1-(4-ethoxy-2,6-difluorobenzyl)-1H-pyrazol-3-yl]-N-(pyridin-4-yl)pyrimidin-4-amine], for which the IC50 in the experiment with HeLa cell line turned out to be 8.8 µM; in experiment [1] it was 0.0056 µM.

In the case of `CCOc1cc(F)c(Cn2cc(N(C)C)c(-c3ncc(OC)c(Nc4ccncc4)n3)n2)c(F)c1` [Example 2-2-10, 2-[4-(dimethylamino)-1-(4-ethoxy-2,6-difluorobenzyl)-1H-pyrazol-3-yl]-5-methoxy-N-(pyridin-4-yl)pyrimidin-4-amine], the IC50 in the experiment with HeLa cell line was above 10 µM; in experiment [1] (setting [2]) it was 0.25 µM.

As to `CCOc1cc(F)c(Cn2nc(-c3nccc(Nc4ccncc4C(=O)NC)n3)c(Cl)c2C2CC2)c(F)c1` [Example 2-1-1, 4-({2-[4-chloro-5-cyclopropyl-1-(4-ethoxy-2,6-difluorobenzyl)-1H-pyrazol-3-yl]pyrimidin-4-yl}amino)-N-methylnicotinamide], the figures for the IC50 (in the experiment with HeLa cell line; in experiment [1] (setting [2])) were above 10 µM and 0.0047 µM, respectively.

Take `CCOc1cc(F)c(Cn2nc(-c3ncc(OC)c(Nc4ccncc4C(N)=O)n3)c(F)c2C)c(F)c1` [Example 2-4-5, 4-({2-[1-(4-ethoxy-2,6-difluorobenzyl)-4-fluoro-5-methyl-1H-pyrazol-3-yl]-5-methoxypyrimidin-4-yl}amino)pyridine-3-carboxamide]: the IC50 in the experiment on HeLa cell line was above 10 µM; in experiment [1] (setting [2]) it was 0.011 µM.

On to `CCOc1cc(F)c(Cn2nc(-c3nccc(Nc4ccncc4C(=O)O)n3)c(Cl)c2C2CC2)c(F)c1` [Example 2-3-1, 4-({2-[4-chloro-5-cyclopropyl-1-(4-ethoxy-2,6-difluorobenzyl)-1H-pyrazol-3-yl]pyrimidin-4-yl}amino)nicotinic acid], for which the IC50 in experiment [1] came out at 0.011 µM.

On to `CCOc1cc(F)c(Cn2nc(-c3ncc(OC)c(Nc4ccncc4)n3)c(Br)c2C)c(F)c1` [Example 2-2-4, 2-[4-bromo-1-(4-ethoxy-2,6-difluorobenzyl)-5-methyl-1H-pyrazol-3-yl]-5-methoxy-N-(pyridin-4-yl)pyrimidin-4-amine], for which the IC50 with HeLa cell line turned out to be 3.3 µM; in experiment [1] (setting [2]) it was 0.024 µM.

As for `CCOc1cc(F)c(Cn2nc(-c3nccc(Nc4ccncc4C(=O)NCCO)n3)c(Cl)c2C2CC2)c(F)c1` [Example 2-4-1, 4-({2-[4-chloro-5-cyclopropyl-1-(4-ethoxy-2,6-difluorobenzyl)-1H-pyrazol-3-yl]pyrimidin-4-yl}amino)-N-(2-hydroxyethyl)nicotinamide], the IC50 in the experiment on HeLa cell line was above 10 µM; in experiment [1], 0.054 µM.

(Values after US9765058B2, “Substituted benzylpyrazoles” (BAYER PHARMA AKTIENGESELLSCHAFT, priority 2013, dated 2017).)
